In this assay the target is T1, FPR2 (Homo sapiens, UniProt P25090).
T1 construct: expressed in transfected cells
T1 sequence (P25090 1-351): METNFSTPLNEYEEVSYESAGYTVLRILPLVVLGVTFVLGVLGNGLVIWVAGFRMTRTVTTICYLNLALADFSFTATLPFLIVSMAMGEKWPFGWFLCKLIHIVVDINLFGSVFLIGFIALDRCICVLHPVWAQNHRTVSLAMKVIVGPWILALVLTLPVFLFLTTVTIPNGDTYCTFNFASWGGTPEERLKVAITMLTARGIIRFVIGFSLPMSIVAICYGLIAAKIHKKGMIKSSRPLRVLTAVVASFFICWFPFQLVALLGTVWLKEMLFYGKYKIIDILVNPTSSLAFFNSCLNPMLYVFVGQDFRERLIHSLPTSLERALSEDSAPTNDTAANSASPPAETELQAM
The experiment in a line: FLIPR Tetra compound-induced calcium activity in CHO-Ga16 cells stably expressing FPR2. The assay is classed as cell-based. The conditions noted are these: calcium activity on FLIPR Tetra; for Efficacy (fraction): efficacy given as a fraction; for EC50: tested at 0.61 to 10,000 nM. How it is done: CHO-Ga16 cells stably expressing FPR2 were cultured in (F12, 10% FBS, 1% PSA, 400 μg/ml geneticin and 50 μg/ml hygromycin) and HEK-Gqi5 cells stable expressing FPR2 were cultured in (DMEM high glucose, 10% FBS, 1% PSA, 400 μg/ml geneticin and 50 μg/ml hygromycin). In general, the day before the experiment, 18,000 cells/well were placed in a 384-well clear bottom poly-d-lysine coated plate. The following day the screening compound-induced calcium activity was assayed on the FLIPR^Tetra. The drug plates were prepared in 384-well microplates using the EP3 and the MultiPROBE robotic liquid handling systems. Compounds were tested at concentrations ranging from 0.61 to 10,000 nM. Results are expressed as EC50 (nM) and efficacy values.

Molecules are shown by their SMILES.

Consider `CCC1(C(C)C)NC(=O)N(CC(=O)Nc2ccc(Br)cc2)C1=O` (stereo not shown) [Compound 1, N-(4-bromophenyl)-2-(4-ethyl-4-isopropyl-2,5-dioxoimidazolidin-1-yl)acetamide], for which the “Efficacy (fraction)” value is on record as “(0.99)” and the EC50 – broadly, the concentration that produces a half-maximal response – worked out at 56 nM.
Regarding `COCC1(C)NC(=O)N(CC(=O)Nc2ccc(Br)cc2)C1=O` (stereo not shown) [Compound 5], the “Efficacy (fraction)” value is “(1.00)” and the EC50 turned out to be 306 nM.
In the same order, the values of `O=C(CN1C(=O)C2CCCN2C1=O)Nc1ccc(Br)cc1` (stereo not shown) [Compound 2, N-(4-bromophenyl)-2-(1,3-dioxotetrahydro-1H-pyrrolo[1,2-c]imidazol-2(3H)-yl)acetamide] are “(0.93)” and 343 nM.
In the same order, the values of `O=C(CN1C(=O)C2CCCCN2C1=O)Nc1ccc(Br)cc1` (stereo not shown) [Compound 3, N-(4-bromophenyl)-2-(1,3-dioxohexahydroimidazo[1,5-a]pyridin-2(3H)-yl)acetamide] are “(1.0)” and 243 nM.
The corresponding values for `O=C(CN1C(=O)NC2(CCC2)C1=O)Nc1ccc(Br)cc1` [Compound 6, N-(4-Bromophenyl)-2-(6,8-dioxo-5,7-diazaspiro[3.4]octan-7-yl)acetamide] are “(1.00)” and 647 nM.
